# Values of other authors in article PMC11859340, “The Therapeutic Potential of Spirooxindoles in Cancer: A Focus on p53–MDM2 Modulation” (Pharmaceuticals, 2025).
# Read-outs that look alike come from different tables or passages of the source.
# Key:
# PC-3 (p53−) = system: PC-3 (p53−); design: method as in PMID 30735387; conditions: MTT; read-out: IC50 against PC-3 (p53−)
# LNCaP (p53+) = system: LNCaP (p53+); design: method as in PMID 30735387; conditions: MTT; read-out: IC50 against LNCaP (p53+)
# tumor growth = system: tumor growth; design: method as in PMID 25618595; conditions: 20 mg/kg body weight over 14 days
# MCF7 = system: MCF7; design: method as in PMID 25618595; conditions: MTT; read-out: IC50 against MCF7
# HEK-293 = system: HEK-293; design: method as in PMID 25618595; conditions: human kidney normal cell line; read-out: IC50 against HEK-293
# MD-MB-231 = system: MD-MB-231; design: method as in PMID 25618595; conditions: MTT; read-out: IC50 against MD-MB-231
# VERO = system: VERO; design: method as in PMID 25618595; conditions: monkey kidney normal cell line; read-out: IC50 against VERO
# Caco-2 (colon) = system: Caco-2 (colon); design: method as in PMID 34970530; conditions: MTT; read-out: IC50 against Caco-2
# MDA-MB231 (breast) = system: MDA-MB231 (breast); design: method as in PMID 34970530; conditions: MTT; read-out: IC50 against MDA-MB231
# MCF7 (breast) [1] = system: MCF7 (breast); design: method as in PMID 26256638; conditions: MTT; read-out: IC50 against MCF7
# HepG-2 (liver) = system: HepG-2 (liver); design: method as in PMID 34970530; conditions: MTT; read-out: IC50 against HepG-2
# MDA-MB-231 = system: MDA-MB-231; design: method as in doi:10.3390/separations10040225; conditions: MTT; read-out: IC50 against MDA-MB-231
# MDM2 [2] = target: MDM2; design: method as in doi:10.3390/separations10040225; conditions: MST; read-out: KD, MST binding affinity for MDM2
# PC3 = system: PC3; design: method as in doi:10.3390/separations10040225; conditions: MTT; read-out: IC50 against PC3
# HCT116^+/+ = system: HCT116^+/+; design: method as in PMID 34946727; conditions: MTT; read-out: CC50 against HCT116^+/+
# HCT116^−/− = system: HCT116^−/−; design: method as in PMID 34946727; conditions: MTT; read-out: CC50 against HCT116^−/−
# HCT116 p53^+/+ = system: HCT116 p53^+/+; design: method as in PMID 28800455; conditions: read-out: IC50 against HCT116 p53^+/+
# HCT116 p53^−/− = system: HCT116 p53^−/−; design: method as in PMID 28800455; conditions: read-out: IC50 against HCT116 p53^−/−
# HCT116 (colon) [3] = system: HCT116 (colon); design: method as in PMID 26883465; conditions: MTT; read-out: IC50 against HCT116
# A549 (lung) [4] = system: A549 (lung); design: method as in PMID 26883465; conditions: MTT; read-out: IC50 against A549
# MDA-MB-231 (breast) [5] = system: MDA-MB-231 (breast); design: method as in PMID 26883465; conditions: MTT; read-out: IC50 against MDA-MB-231
# A549 (lung) [6] = system: A549 (lung); design: method as in PMID 28797774; conditions: CCK-8; read-out: IC50 against A549
# HCT116 (colon) [7] = system: HCT116 (colon); design: method as in PMID 28797774; conditions: CCK-8; read-out: IC50 against HCT116
# MCF7 (breast) [8] = system: MCF7 (breast); design: method as in PMID 28797774; conditions: CCK-8; read-out: IC50 against MCF7
# neuroblastoma = system: neuroblastoma; design: method as in PMID 29416773; conditions: oral 50 mg/kg body weight for 50 days, 4 days on and 2 days off
# [9] = system: osteosarcoma, acute leukemia, prostate, colon, and dedifferentiated liposarcoma cancers; conditions: mouse xenograft models
# MDM2 [10] = target: MDM2; design: method as in PMID 36174446; conditions: read-out: KD against MDM2
# HCT-116 (colon) = system: HCT-116 (colon); design: method as in PMID 36174446; conditions: MTT; read-out: IC50 against HCT-116
# A549 (lung) [11] = system: A549 (lung); design: method as in PMID 36174446; conditions: MTT; read-out: IC50 against A549
# PC3 (prostate) = system: PC3 (prostate); design: method as in PMID 36174446; conditions: MTT; read-out: IC50 against PC3
# MDA-MB-231 (breast) [12] = system: MDA-MB-231 (breast); design: method as in PMID 36174446; conditions: MTT; read-out: IC50 against MDA-MB-231
# p53 [13] = system: p53; design: method as in PMID 37175323; conditions: 22Rv1 and LNCaP, dose-dependent
# MDM2 [14] = system: MDM2; design: method as in PMID 37175323; conditions: induction of protein degradation
# [15] = system: HepG2 (hepatocellular wild p53 type); design: method as in PMID 24268795; conditions: read-out: GI50 against HepG2
# HCT116 (p53^−/−) [16] = system: HCT116 (p53^−/−); design: method as in PMID 24268795; conditions: read-out: GI50 against HCT116 (p53^−/−)
# HCT116 (colon) [17] = system: HCT116 (colon); design: method as in PMID 29302672; conditions: at 10 μM, CCK-8
# colon HCT116 = system: colon HCT116; design: method as in PMID 31047751; conditions: at 10 μM, CCK-8
# A549 (lung) [18] = system: A549 (lung); design: method as in PMID 29302672; conditions: at 10 μM, CCK-8
# breast MCF7 = system: breast MCF7; design: method as in PMID 31047751; conditions: CCK-8
# MCF7 (breast) [19] = system: MCF7 (breast); design: method as in PMID 29302672; conditions: at 10 μM, CCK-8
# lung A549 = system: lung A549; design: method as in PMID 31047751; conditions: CCK-8
# HCT116 (p53^−/−) [20] = system: HCT116 (p53^−/−); design: method as in doi:10.1039/C5MD00450K; conditions: read-out: GI50 against HCT116 (p53^−/−)
# [21] = system: HEK293T (embryonic kidney); design: method as in doi:10.1080/10426507.2020.1723590; conditions: MTT; read-out: IC50 against HEK293T
# p53 [22] = system: p53; design: method as in doi:10.1080/10426507.2020.1723590
# A549 (lung) [23] = system: A549 (lung); design: method as in doi:10.1080/10426507.2020.1723590; conditions: MTT; read-out: IC50 against A549
# HCT116 (p53^−/−) [24] = system: HCT116 (p53^−/−); design: method as in PMID 28987608; conditions: MTT; read-out: IC50 against HCT116 (p53^−/−)
smiles,measurement,setting,value
COC(=O)C1([N+](=O)[O-])C[C@@H](c2ccccc2)N(c2ccccc2)[C@]12C(=O)Nc1ccccc12 (stereo partly shown),IC50,PC-3 (p53−),6.8 to 8.5 µM
same,IC50,LNCaP (p53+),6.2 to 7.9 µM
O=C(c1ccc(OCCN2CCCCC2)cc1)C1[C@H](c2ccccc2)[C@@H](c2ccccc2)NC12C(=O)Nc1ccc(Cl)cc12 (stereo partly shown),tumor growth compared to the untreated control group,tumor growth,reduction in tumor growth
same,IC50,MCF7,6.5 µM
same,IC50,HEK-293,> 50 µM
same,IC50,MD-MB-231,3.7 µM
same,IC50,VERO,> 50 µM
O=c1[nH]cc(F)c(=O)[nH]1 [5-fluorouracil],IC50,Caco-2 (colon),1.05 ± 0.156 µM
same,IC50,MDA-MB231 (breast),7.05 ± 0.204 µM
same,IC50,MCF7 (breast) [1],10.5 ± 1.6 µM
same,IC50,HepG-2 (liver),4.83 ± 0.296 µM
O=C(c1nc2ccccc2[nH]1)[C@H]1[C@H](c2ccc(Cl)cc2)C2CC3CCCCC3N2[C@]12C(=O)Nc1ccc(Cl)cc12 (stereo partly shown) [39 (R = 4-ClC6H4)],IC50,MDA-MB-231,4.76 ± 0.069 µM
same,Kd,MDM2 [2],2.38 µM
same,IC50,PC3,4.574 ± 0.011 µM
"COc1ccc(N2C(=O)[C@@]3(CN(C)C[C@@]34C(=O)Nc3ccc(Cl)cc34)NC2=S)cc1 [84 (X = S, R = Cl, R’ = 4-MeOC6H4)]",CC50,HCT116^+/+,1.95 ± 0.43 µM
same,CC50,HCT116^−/−,2.35 ± 0.95 µM
"O=C1Nc2ccc(Br)cc2[C@]12[C@@H](c1ccccc1)C(c1ccccc1)=NN2c1ccccc1 [97 (R = 5-Br, R^1 = R^3 = H, R^2 = Ph)]",IC50,HCT116 p53^+/+,13.1 ± 1 µM
same,IC50,HCT116 p53^−/−,14.2 ± 0.8 µM
"COC(=O)C[C@@H]1CS[C@]2(C(=O)Nc3cccc(Br)c32)[C@H](c2ccc(Br)cc2)[C@H]1C=O [136 (R = 4-Br, R’ = 4-BrC6H4)]",IC50,HCT116 (colon) [3],1.57 µM
same,IC50,A549 (lung) [4],1.67 µM
same,IC50,MDA-MB-231 (breast) [5],3.55 µM
CCN(CC)c1ccc(N2C[C@H]3[C@@H](CS[C@]4(C(=O)Nc5cccc(Br)c54)[C@@H]3c3ccc(Br)cc3)CC2=O)cc1 [143 (R = 4-(4-diethylamino)C6H4)],IC50,A549 (lung) [6],2.9 ± 0.2 µM
same,IC50,HCT116 (colon) [7],1.8 ± 0.5 µM
same,IC50,MCF7 (breast) [8],2.4 ± 0.1 µM
CC1(C)CCC2(CC1)N[C@@H](C(=O)N[C@@H]1CC[C@@H](C(N)=O)OC1)[C@H](c1ccnc(Cl)c1F)[C@]21C(=O)Nc2cc(Cl)ccc21 [Milademetan],tumor growth and survival,neuroblastoma,tumor growth inhibition and extended survival
CC(C)(C)C[C@@H]1N[C@@H](C(=O)N[C@H]2CC[C@H](O)CC2)[C@H](c2cccc(Cl)c2F)[C@]12C(=O)Nc1cc(Cl)ccc12 [SAR405838],cancer inhibition,[9],recognizable or complete cancer inhibition
O=C(c1nc2ccccc2[nH]1)[C@H]1[C@H](c2ccccc2)C2CC3CCCCC3N2[C@]12C(=O)Nc1ccc(Cl)cc12 (stereo partly shown) [compound 38],Kd,MDM2 [10],7.94 µM
same,IC50,HCT-116 (colon),7.2 ± 0.3 µM
same,IC50,A549 (lung) [11],7.8 ± 0.3 µM
same,IC50,PC3 (prostate),3.4 ± 0.3 µM
same,IC50,MDA-MB-231 (breast) [12],2.4 ± 0.2 µM
COc1cc(C(N)=O)ccc1NC(=O)[C@H]1[C@H](c2cccc(Cl)c2F)C2(C(=O)Nc3cc(Cl)ccc32)[C@H](CC(C)(C)C)N1C(=O)OCCOCCOCCOCCOC(=O)N1[C@@H](CC(C)(C)C)[C@@]2(C(=O)Nc3cc(Cl)ccc32)[C@@H](c2cccc(Cl)c2F)[C@@H]1C(=O)Nc1ccc(C(N)=O)cc1OC (stereo partly shown) [compound 44],p53 levels,p53 [13],increase in p53 levels
same,MDM2 level,MDM2 [14],Downregulation of MDM2
"COc1ccc(C2=N[C@@H](c3ccc(Cl)cc3)[C@@H](c3ccc(Cl)cc3)N2C(=O)N2CCNC(=O)C2)c(OC(C)C)c1 [nutlin-3, reference compound]",GI50,[15],51.3 ± 1.04 µM
same,GI50,HCT116 (p53^−/−) [16],52.3 ± 1.15 µM
same,"% inhibition, HCT116",HCT116 (colon) [17],42.9%
same,IC50,HCT116 (colon) [3],1.16 µM
same,IC50,A549 (lung) [6],10 ± 0.8 µM
same,IC50,HCT116 (colon) [7],14.9 ± 0.6 µM
same,IC50,MCF7,11.6 µM
same,"% inhibition, HCT116",colon HCT116,64.4%
same,IC50,MCF7 (breast) [8],28.4 ± 2.5 µM
same,"% inhibition, A549",A549 (lung) [18],42.9%
same,IC50,A549 (lung) [4],2.22 µM
same,IC50,breast MCF7; read-out: IC50 against MCF7,12.1 µM
same,"% inhibition, MCF7",breast MCF7; at 10 μM,32.8%
same,IC50,MD-MB-231,23.5 µM
same,IC50,MDA-MB-231 (breast) [5],4.68 µM
same,"% inhibition, MCF7",MCF7 (breast) [19],33.1%
same,IC50,lung A549; read-out: IC50 against A549,2.4 µM
same,"% inhibition, A549",lung A549; at 10 μM,47.0%
"COc1ccc(C2=N[C@@H](c3ccc(Cl)cc3)[C@@H](c3ccc(Cl)cc3)N2C(=O)N2CCNC(=O)C2)c(OC(C)C)c1 [nutlin-3a, reference compound]",IC50,PC-3 (p53−),28.1 to 29.6 µM
same,GI50,HCT116 (p53^−/−) [20],47.8 ± 1.9 µM
same,IC50,[21],10.4 ± 0.8 µM
same,p53 reporter activation,"p53 [22]; A549, 1.56 to 100 μM compound concentrations",3.6 to 5.1 folds
same,p53 receptor activation,"p53 [22]; A549, at 100 μM",5.1 fold
same,IC50,A549 (lung) [23],14.9 ± 0.6 µM
same,IC50,HCT116 (p53^−/−) [24],47.8 ± 1.9 µM
